The source of these data is the NIST ThermoML archive (doi:10.1016/j.jct.2012.02.035).

Numbers after ± are expanded uncertainties.

Data set [1] in a line: Solid-liquid equilibrium temperature. The following applies: 101 kPa; Crystal 2; DTA.
Data set [2] in a line: Molar enthalpy of transition or fusion. The following applies: DSC.
For data set [3] the following is noted: Crystal; DTA.

Regarding `CC[N+](CC)(CC)CC.O=[N+]([O-])[O-]` [tetraethylammonium nitrate], in data set [1], the Solid-liquid equilibrium temperature stood at 371.5 ± 0.3 K. Also, the “Molar enthalpy of transition or fusion” value in data set [2] (Crystal 2) stood at 2.58 ± 0.0956 kcal/mol.
In the case of `CCCC[N+](CCCC)(CCCC)CCCC.O=[N+]([O-])[O-]` [tetrabutylammonium nitrate], in data set [1], the Solid-liquid equilibrium temperature is 361.4 ± 0.2 K. Moreover, in data set [3], the Normal melting temperature stood at 118.0 ± 1.1 °C. In addition, the “Molar enthalpy of transition or fusion” value was found to be 0.0478 ± 0.0239 kcal/mol in data set [2] (Crystal 2) and 3.42 ± 0.12 kcal/mol in data set [2] (Crystal).
